Here are results for four compounds from patent US12453720B2, “Application of norharmane in improving antibacterial activity of antibiotics” (ZHEJIANG UNIVERSITY OF TECHNOLOGY, priority 2020, dated 2025).

This test has as its system drug-resistant Pseudomonas aeruginosa GDMCC No: 61027 (strain C218). The experiment in a line: Checkerboard microdilution of norharmane combined with an antibiotic (OD600 growth, MIC at 80% inhibition, FICI and ΔE evaluation). The test is classed as cell-based. The method, then: Preparation of bacterial solution: Pseudomonas aeruginosa GDMCC No: 61027 stored at −80° C., was thawed at room temperature, streaked on LB agar medium and cultured at 37° C. for 24 h, and then a single well-developed colony was inoculated again and cultured for 24 h at 37° C. to ensure that the strain was in the growth phase. A single colony was selected, inoculated into LB medium, and cultured at 37° C. and 200 rpm. for 16 h. The resulting solution was diluted 10000 times with fresh LB medium to obtain Pseudomonas aeruginosa GDMCC No:61027 bacterial solution whose concentration calculated by of the amount of bacterial viable count was […].
According to the checkerboard microdilution method, the norharmane mother liquor was diluted 4 times with methanol, and the concentration ranges of norharmane and an antibiotic (polymyxin B, imipenem-cilastatin sodium or levofloxacin) in combination were screened.
Methanol was used as a diluent, the preparation concentrations of norharmane were 160, 80, 40, 20, 10, 5 and 2.5 μg/mL, the preparation concentrations of polymyxin B were 31.25, 15.6, 7.8, 3.9, 1.95, 0.98 and 0.49 μg/mL; the preparation concentrations of imipenem-cilastatin sodium were 8000, 4000, 2000, 1000, 500, 250 and 125 μg/mL; the preparation concentrations of levofloxacin were 250, 125, 62.5, 31.25, 15.6, 7.8 and 3.9 μg/mL; and the preparation concentrations of ofloxacin were 2000, 1000, 500, 250, 125, 62.5, and 31.25 μg/mL.
According to FIG. 7, each antibiotic is added into a 96-well plate, and 50 μL of the antibiotic solutions were drawn and added into wells in columns 2˜8 of the %-well plate in the order of concentration from low to high, while the same amount of methanol instead of antibiotic was added into column 1. 50 μL of the norharmane solutions were drawn and added into wells in rows G˜A of the 96-well plate in the order of concentration from low to high, while no norharmane was added into wells in row H. After the 96-well plate was left to stand to evaporate methanol completely, 200 μL of the Pseudomonas aeruginosa GDMCC No: 61027 bacterial solution (2.6×10^9 CFU) were added into the wells in columns 1˜8. Therefore, the final concentrations of norharmane were 40, 20, 10, 5, 2.5, 1.25, 0.63 and 0 μg/mL; the final concentrations of norharmane were polymyxin B is 7.8, 3.9, 1.95, 0.98, 0.49, 0.24, 0.12 and 0 μg/mL; the final concentrations of imipenem-cilastatin sodium were 2000, 1000, 500, 250, 125, 62.5, 31.25 and 0 μg/mL; the final concentrations of levofloxacin were 62.5, 31.25, 15.6, 7.8, 3.9, 1.95, 0.98 and 0 μg/mL; and the final concentrations of ofloxacin were 500, 250, 125, 62.5, 31.25, 15.6, 7.8 and 0 μg/mL. 200 μL of fresh LB medium were added to column 9. Wherein, well H1 is a growth control well, containing only bacterial solution and no drugs, and column 9 is a blank control containing only LB liquid medium. The prepared 96-well plate was placed in a constant temperature incubator at 37° C. for 24 h, and then OD600 was measured with a microplate reader and the results were recorded. All experiments were repeated three times.
OD value of each well at 600 nm was measured with a microplate reader. And the percentage of the bacterial growth inhibition of each well was determined as
Loewe additivity (LA) theory assumes that the drugs applied in combination have no interaction, i.e., null reference model. FICI method is the non-parametric method of LA theory, which can be expressed as: ΣFIC=FICA+FICB=CA/MICA+CB/MICB
wherein MICA and MICB denote minimum inhibitory concentrations of two drugs A and B when used alone, respectively, and CA and CB denote concentration of drugs A and B in combination respectively while their combined effect is equal to the sum of their individual separate effects. ΣFIC value of each well with percentage of the bacterial growth inhibition >80% were calculated, and in the ΣFIC values obtained, if ΣFICmax>4, FICI=ΣFICmax; if ΣFICmax<4, FICI=ΣFICmin. […]
For orientation: Dilution methods test growth across graded concentrations, often in twofold steps.

Where [1] appears, read: end point 80% growth inhibition.

Regarding `c1ccc2c(c1)[nH]c1cnccc12` [Norharmane, norharmane], the Growth percentage runs as follows: (norharmane 0.63 μg/ml alone, imipenem-cilastatin sodium 0 (Table 2)) 94%; (norharmane 0.63 μg/ml alone, levofloxacin 0 (Table 3)) 98%; (norharmane 0.63 μg/ml alone, ofloxacin 0 (Table 4)) 99%; (norharmane 0.63 μg/ml alone, polymyxin B 0 (Table 1)) 99%; (norharmane 1.25 μg/ml alone, imipenem-cilastatin sodium 0 (Table 2)) 92%; (norharmane 1.25 μg/ml alone, levofloxacin 0 (Table 3)) 94%. Besides, the Growth percentage by setting is: (norharmane 1.25 μg/ml alone, ofloxacin 0 (Table 4)) 98%; (norharmane 1.25 μg/ml alone, polymyxin B 0 (Table 1)) 96%; (norharmane 2.5 μg/ml alone, imipenem-cilastatin sodium 0 (Table 2)) 87%; (norharmane 2.5 μg/ml alone, levofloxacin 0 (Table 3)) 94%; (norharmane 2.5 μg/ml alone, ofloxacin 0 (Table 4)) 97%; (norharmane 2.5 μg/ml alone, polymyxin B 0 (Table 1)) 96%. Further, the Growth percentage by setting is: (norharmane 5 μg/ml alone, imipenem-cilastatin sodium 0 (Table 2)) 87%; (norharmane 5 μg/ml alone, levofloxacin 0 (Table 3)) 92%; (norharmane 5 μg/ml alone, ofloxacin 0 (Table 4)) 95%; (norharmane 5 μg/ml alone, polymyxin B 0 (Table 1)) 95%; (norharmane 10 μg/ml alone, imipenem-cilastatin sodium 0 (Table 2)) 86%; (norharmane 10 μg/ml alone, levofloxacin 0 (Table 3)) 98%. The Growth percentage was found to be 94% (norharmane 10 μg/ml alone, ofloxacin 0 (Table 4)); 95% (norharmane 10 μg/ml alone, polymyxin B 0 (Table 1)); 85% (norharmane 20 μg/ml alone, imipenem-cilastatin sodium 0 (Table 2)); 95% (norharmane 20 μg/ml alone, levofloxacin 0 (Table 3)); 88% (norharmane 20 μg/ml alone, ofloxacin 0 (Table 4)); 95% (norharmane 20 μg/ml alone, polymyxin B 0 (Table 1)). The Growth percentage is, setting by setting: (norharmane 40 μg/ml alone, imipenem-cilastatin sodium 0 (Table 2)) 82%; (norharmane 40 μg/ml alone, levofloxacin 0 (Table 3)) 93%; (norharmane 40 μg/ml alone, ofloxacin 0 (Table 4)) 81%; (norharmane 40 μg/ml alone, polymyxin B 0 (Table 1)) 84%. In addition, for the setting “norharmane used alone, end point 80% growth inhibition”, the “MIC MICA: minimum inhibitory concentration of a drug used alone” value was 40 µg/mL.
In the case of `C[C@H]1COc2c(N3CCN(C)CC3)c(F)cc3c(=O)c(C(=O)O)cn1c23` [Levofloxacin, levofloxacin, reference compound], under setting [1], the “MIC MICB: minimum inhibitory concentration of the antibiotic when used alone” value turned out to be 62.5 µg/mL. In addition, the Growth percentage (levofloxacin 0.98 μg/ml alone (norharmane 0)) came out at 91%; the Growth percentage (levofloxacin 1.95 μg/ml alone (norharmane 0)) is on record as 89%; the Growth percentage (levofloxacin 3.9 μg/ml alone (norharmane 0)) turned out to be 85%; the Growth percentage (levofloxacin 7.8 μg/ml alone (norharmane 0)) was 72%; the Growth percentage (levofloxacin 15.6 μg/ml alone (norharmane 0)) was found to be 42%; the Growth percentage (levofloxacin 31.25 μg/ml alone (norharmane 0)) is given as 26%. Moreover, the Growth percentage (levofloxacin 62.5 μg/ml alone (norharmane 0)) was 5%.
Consider `CC1COc2c(N3CCN(C)CC3)c(F)cc3c(=O)c(C(=O)O)cn1c23` (centres unmarked) [Ofloxacin, ofloxacin, reference compound], for which the “MIC MICB: minimum inhibitory concentration of the antibiotic when used alone” value under setting [1] was 500 µg/mL. The Growth percentage by setting is: (ofloxacin 7.8 μg/ml alone (norharmane 0)) 83%; (ofloxacin 15.6 μg/ml alone (norharmane 0)) 79%; (ofloxacin 31.25 μg/ml alone (norharmane 0)) 73%; (ofloxacin 62.5 μg/ml alone (norharmane 0)) 67%; (ofloxacin 125 μg/ml alone (norharmane 0)) 54%; (ofloxacin 250 μg/ml alone (norharmane 0)) 36%. Besides, the Growth percentage (ofloxacin 500 μg/ml alone (norharmane 0)) came to 6%.
With polymyxin B [reference compound], the “MIC MICB: minimum inhibitory concentration of the antibiotic when used alone” value under setting [1] was determined as 7.8 µg/mL. Besides, the Growth percentage stood at 100% (polymyxin B 0.12 μg/ml alone (norharmane 0)); 98% (polymyxin B 0.24 μg/ml alone (norharmane 0)); 98% (polymyxin B 0.49 μg/ml alone (norharmane 0)); 90% (polymyxin B 0.98 μg/ml alone (norharmane 0)); 52% (polymyxin B 1.95 μg/ml alone (norharmane 0)); 29% (polymyxin B 3.9 μg/ml alone (norharmane 0)). For the same compound, where the note is “polymyxin B 7.8 μg/ml alone (norharmane 0)”, the Growth percentage was 5%.
